Results on 19 compounds are retold here after ChEMBL document CHEMBL5120922, “Discovery, Optimization, and Evaluation of Potent and Selective PI3Kδ-γ Dual Inhibitors for the Treatment of B-cell Malignancies” (J Med Chem, 2022).

The target in test [1] is Phosphatidylinositol 4,5-bisphosphate 3-kinase catalytic subunit gamma isoform (Homo sapiens, UniProt P48736). Kind of test: Inhibition of N-terminal His6-tagged recombinant full length human PI3Kgamma expressed in baculovirus infected Sf21 insect cells at 0.1 uM by HTRF assay relative to control.
Test [2] relates to DOHH-2. The experiment in a line: Antiproliferative activity against human DOHH-2 cells assessed as cell growth inhibition measured after 72 hrs by MTT assay. It counts as functional, cell-based. Conditions: DOHH-2, 72 h. For orientation: Formazan colour is commonly taken as a measure of viable cells.
For test [3], the system named is SU-DHL-6. The experiment in a line: Antiproliferative activity against human SU-DHL-6 cells assessed as cell growth inhibition measured after 72 hrs by MTT assay. It counts as functional, cell-based. Conditions: SU-DHL-6, 72 h.
Test [4] deals with SUD4. Kind of test: Antiproliferative activity against human SU-DHL-4 cells assessed as cell growth inhibition measured after 72 hrs by MTT assay. The test is classed as functional, cell-based. As to conditions: SU-DHL-4, 72 h.
Test [5] deals with T1, Phosphatidylinositol 4,5-bisphosphate 3-kinase catalytic subunit delta isoform (Homo sapiens) (UniProt O00329).
T1 sequence (whole entry): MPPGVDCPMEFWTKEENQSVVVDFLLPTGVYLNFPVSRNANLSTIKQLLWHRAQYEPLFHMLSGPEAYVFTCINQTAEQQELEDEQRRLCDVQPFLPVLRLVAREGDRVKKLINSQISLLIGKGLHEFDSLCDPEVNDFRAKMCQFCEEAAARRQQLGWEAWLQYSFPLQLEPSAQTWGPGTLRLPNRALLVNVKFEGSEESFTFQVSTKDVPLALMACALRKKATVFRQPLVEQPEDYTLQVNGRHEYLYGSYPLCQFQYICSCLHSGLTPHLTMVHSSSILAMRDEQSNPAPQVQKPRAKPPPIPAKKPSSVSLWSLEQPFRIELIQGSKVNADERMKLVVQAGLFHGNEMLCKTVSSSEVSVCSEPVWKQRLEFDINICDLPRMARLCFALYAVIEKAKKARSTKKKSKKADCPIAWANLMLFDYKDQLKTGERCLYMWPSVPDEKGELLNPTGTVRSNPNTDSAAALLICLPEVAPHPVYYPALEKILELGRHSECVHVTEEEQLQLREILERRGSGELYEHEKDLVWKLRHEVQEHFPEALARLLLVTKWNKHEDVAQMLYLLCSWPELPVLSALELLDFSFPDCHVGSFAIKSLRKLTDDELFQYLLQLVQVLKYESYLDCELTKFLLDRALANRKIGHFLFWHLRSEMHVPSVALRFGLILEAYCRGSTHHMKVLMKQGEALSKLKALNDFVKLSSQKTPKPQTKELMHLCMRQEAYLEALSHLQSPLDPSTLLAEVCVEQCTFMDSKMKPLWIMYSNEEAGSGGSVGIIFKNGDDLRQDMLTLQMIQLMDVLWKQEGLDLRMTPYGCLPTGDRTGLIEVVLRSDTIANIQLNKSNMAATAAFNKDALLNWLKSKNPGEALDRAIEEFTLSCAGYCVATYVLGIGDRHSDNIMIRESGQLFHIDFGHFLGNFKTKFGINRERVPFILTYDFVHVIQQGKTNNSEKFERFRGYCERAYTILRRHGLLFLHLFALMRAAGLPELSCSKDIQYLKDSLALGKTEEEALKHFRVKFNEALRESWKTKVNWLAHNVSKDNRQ
The experiment in a line: Inhibition of N-terminal His6-tagged recombinant full length human PI3Kdelta expressed in baculovirus infected Sf21 insect cells at 0.1 uM by HTRF assay relative to control.

For test [6], the target named is Phosphatidylinositol 4,5-bisphosphate 3-kinase catalytic subunit alpha isoform (Homo sapiens, UniProt P42336). The experiment in a line: Inhibition of N-terminal His6-tagged recombinant full length human PI3Kalpha expressed in baculovirus infected Sf21 insect cells at 1 uM by HTRF assay relative to control. (Time-resolved FRET reads energy transfer from a long-lived donor to a nearby acceptor.)

For test [7], the target named is Phosphatidylinositol 4,5-bisphosphate 3-kinase catalytic subunit beta isoform (Homo sapiens, UniProt P42338). The experiment in a line: Inhibition of N-terminal His6-tagged recombinant full length human PI3Kbeta expressed in baculovirus infected Sf21 insect cells at 1 uM by HTRF assay relative to control.

SMILES strings stand for the structures.

Sequence of Phosphatidylinositol 4,5-bisphosphate 3-kinase catalytic subunit beta isoform (P42338 whole entry, looked up, canonical isoform): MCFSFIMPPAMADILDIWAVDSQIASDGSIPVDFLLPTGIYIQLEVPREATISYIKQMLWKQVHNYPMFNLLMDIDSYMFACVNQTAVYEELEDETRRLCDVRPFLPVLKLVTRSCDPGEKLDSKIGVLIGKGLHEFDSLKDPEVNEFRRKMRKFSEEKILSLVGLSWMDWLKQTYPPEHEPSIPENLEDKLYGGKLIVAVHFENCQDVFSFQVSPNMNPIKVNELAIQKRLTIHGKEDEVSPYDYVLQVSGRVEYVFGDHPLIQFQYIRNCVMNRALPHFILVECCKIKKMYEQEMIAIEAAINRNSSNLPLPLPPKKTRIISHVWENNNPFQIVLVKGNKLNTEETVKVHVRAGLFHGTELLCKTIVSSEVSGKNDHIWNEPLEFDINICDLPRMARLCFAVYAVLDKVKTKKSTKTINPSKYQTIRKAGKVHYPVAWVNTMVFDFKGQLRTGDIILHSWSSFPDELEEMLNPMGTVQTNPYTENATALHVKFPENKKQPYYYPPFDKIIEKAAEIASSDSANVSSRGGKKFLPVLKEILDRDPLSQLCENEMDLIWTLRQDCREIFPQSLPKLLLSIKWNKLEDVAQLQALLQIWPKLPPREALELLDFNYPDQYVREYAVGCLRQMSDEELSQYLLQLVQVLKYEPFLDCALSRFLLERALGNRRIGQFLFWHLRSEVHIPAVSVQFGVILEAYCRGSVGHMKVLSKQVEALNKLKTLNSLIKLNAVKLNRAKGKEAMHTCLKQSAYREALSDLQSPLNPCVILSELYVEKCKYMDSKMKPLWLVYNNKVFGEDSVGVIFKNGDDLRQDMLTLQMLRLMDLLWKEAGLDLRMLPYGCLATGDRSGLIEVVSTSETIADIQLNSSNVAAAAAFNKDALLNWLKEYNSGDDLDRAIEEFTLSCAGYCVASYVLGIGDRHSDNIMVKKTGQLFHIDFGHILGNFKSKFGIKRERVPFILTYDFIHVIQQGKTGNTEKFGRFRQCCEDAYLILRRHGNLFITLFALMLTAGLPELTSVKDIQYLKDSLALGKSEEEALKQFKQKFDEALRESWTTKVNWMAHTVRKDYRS
Sequence of Phosphatidylinositol 4,5-bisphosphate 3-kinase catalytic subunit gamma isoform (P48736 whole entry, looked up, canonical isoform): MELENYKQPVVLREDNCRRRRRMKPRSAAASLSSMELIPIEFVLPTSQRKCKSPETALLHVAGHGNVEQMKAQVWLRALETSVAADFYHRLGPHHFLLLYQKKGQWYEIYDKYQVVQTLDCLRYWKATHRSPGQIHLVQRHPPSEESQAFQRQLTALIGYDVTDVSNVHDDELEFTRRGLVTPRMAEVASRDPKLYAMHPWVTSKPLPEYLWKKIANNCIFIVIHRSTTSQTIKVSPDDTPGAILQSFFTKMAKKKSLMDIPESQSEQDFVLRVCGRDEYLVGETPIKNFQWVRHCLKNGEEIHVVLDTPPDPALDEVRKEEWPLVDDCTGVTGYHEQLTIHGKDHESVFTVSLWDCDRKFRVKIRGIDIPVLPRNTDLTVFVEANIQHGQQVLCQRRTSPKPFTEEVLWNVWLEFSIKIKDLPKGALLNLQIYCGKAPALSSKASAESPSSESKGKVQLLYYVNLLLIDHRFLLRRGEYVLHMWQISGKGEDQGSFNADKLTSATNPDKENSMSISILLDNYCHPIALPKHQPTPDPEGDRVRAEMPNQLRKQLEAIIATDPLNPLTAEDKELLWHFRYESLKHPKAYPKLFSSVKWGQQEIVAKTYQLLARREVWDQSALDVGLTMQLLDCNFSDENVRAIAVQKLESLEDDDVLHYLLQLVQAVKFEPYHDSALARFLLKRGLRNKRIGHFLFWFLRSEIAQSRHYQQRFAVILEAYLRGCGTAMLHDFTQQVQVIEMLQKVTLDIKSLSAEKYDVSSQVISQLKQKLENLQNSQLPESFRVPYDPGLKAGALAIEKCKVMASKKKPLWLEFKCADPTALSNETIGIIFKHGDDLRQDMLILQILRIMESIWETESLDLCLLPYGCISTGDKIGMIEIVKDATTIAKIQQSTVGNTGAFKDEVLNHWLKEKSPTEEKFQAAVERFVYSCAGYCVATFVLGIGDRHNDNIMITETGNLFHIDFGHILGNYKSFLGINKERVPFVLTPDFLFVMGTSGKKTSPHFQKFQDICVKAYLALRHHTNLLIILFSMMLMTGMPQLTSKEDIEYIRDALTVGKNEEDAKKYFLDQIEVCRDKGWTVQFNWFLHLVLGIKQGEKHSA
Sequence of Phosphatidylinositol 4,5-bisphosphate 3-kinase catalytic subunit alpha isoform (P42336 whole entry, canonical isoform): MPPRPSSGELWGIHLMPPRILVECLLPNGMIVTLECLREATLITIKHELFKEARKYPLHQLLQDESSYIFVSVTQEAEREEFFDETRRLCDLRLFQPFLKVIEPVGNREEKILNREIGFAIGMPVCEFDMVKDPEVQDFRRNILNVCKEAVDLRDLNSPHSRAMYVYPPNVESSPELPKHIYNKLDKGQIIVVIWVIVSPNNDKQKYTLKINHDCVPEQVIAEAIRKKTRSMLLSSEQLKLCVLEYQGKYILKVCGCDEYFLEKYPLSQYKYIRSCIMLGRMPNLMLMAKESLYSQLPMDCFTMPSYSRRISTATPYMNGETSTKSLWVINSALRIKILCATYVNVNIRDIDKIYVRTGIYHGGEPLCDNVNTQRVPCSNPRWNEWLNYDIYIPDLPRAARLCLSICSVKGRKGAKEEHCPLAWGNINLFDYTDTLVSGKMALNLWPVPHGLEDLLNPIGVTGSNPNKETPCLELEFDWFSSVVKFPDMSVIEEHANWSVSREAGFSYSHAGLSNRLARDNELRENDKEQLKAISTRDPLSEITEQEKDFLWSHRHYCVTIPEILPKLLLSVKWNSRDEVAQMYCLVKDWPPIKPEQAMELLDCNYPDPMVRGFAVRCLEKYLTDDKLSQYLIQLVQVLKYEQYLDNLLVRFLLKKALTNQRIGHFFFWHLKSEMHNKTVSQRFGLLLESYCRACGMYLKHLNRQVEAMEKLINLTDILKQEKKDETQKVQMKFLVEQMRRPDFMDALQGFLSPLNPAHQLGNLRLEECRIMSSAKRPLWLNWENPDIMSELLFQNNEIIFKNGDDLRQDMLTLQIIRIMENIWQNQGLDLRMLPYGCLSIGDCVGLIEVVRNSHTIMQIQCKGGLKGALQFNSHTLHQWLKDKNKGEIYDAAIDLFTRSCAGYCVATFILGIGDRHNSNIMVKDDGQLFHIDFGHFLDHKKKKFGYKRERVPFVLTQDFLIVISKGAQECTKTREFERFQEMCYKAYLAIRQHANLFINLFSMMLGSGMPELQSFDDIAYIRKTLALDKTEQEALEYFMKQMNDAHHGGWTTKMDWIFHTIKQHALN

Regarding `C[C@H]1CC[C@@H](c2nc3cc(F)ccc3c(=O)n2-c2cccnc2)N1c1nc(N)nc(N)c1C#N`, the inhibition (usually the relative decrease from the control value, in per cent) in test [1] was 70%; in test [5], 7%; in test [6], 39%; in test [7], 44%. The 50% inhibitory concentration (IC50) (in general, the midpoint of a concentration-inhibition curve) was found to be 570 nM in test [2], 1710 nM in test [3] and 580 nM in test [4].

Regarding `C[C@H]1CC[C@@H](c2nc3cccc(-c4cncnc4)c3c(=O)n2-c2ccccc2)N1c1nc(N)nc(N)c1C#N`, the inhibition in test [1] was 57%; in test [6] it was 26%; in test [7], 49%. Besides, the results for the IC50 in test [2], in test [3] and in test [4] were 1940 nM, 290 nM and 320 nM, respectively.

Regarding `C[C@H]1CC[C@@H](c2nc3ccc(F)cc3c(=O)n2-c2cccnc2)N1c1nc(N)nc(N)c1C#N`, the inhibition in test [1] turned out to be 91%; in test [5], 43%; in test [6], 63%; in test [7] it was 98%. In addition, the figures for the IC50 in test [2], in test [3] and in test [4] were 1890 nM, 2660 nM and 1220 nM, respectively.

For `COc1cccc(C#Cc2cccc3nc([C@@H]4CC[C@H](C)N4c4nc(N)nc(N)c4C#N)n(-c4ccccc4)c(=O)c23)c1`, the inhibition amounted to 35% in test [1], 9% in test [5], 16% in test [6] and 42% in test [7]. Also, the IC50 in test [2] is 450 nM; in test [3], 670 nM; in test [4], 510 nM.

Turning to `Cc1cccc2nc([C@@H]3CC[C@H](C)N3c3nc(N)nc(N)c3C#N)n(-c3cccnc3)c(=O)c12`, the inhibition is 21% in test [1], -2% in test [5], 20% in test [6] and -3% in test [7]. The IC50 came out at 130 nM in test [2], 230 nM in test [3] and 50 nM in test [4].

Consider `COc1ccc(C#Cc2cccc3nc([C@@H]4CC[C@H](C)N4c4nc(N)nc(N)c4C#N)n(-c4ccccc4)c(=O)c23)cc1`, for which the inhibition in test [1] turned out to be 83%; in test [5], 43%; in test [6] it was 25%; in test [7], 62%. For the same compound, the IC50 turned out to be 3980 nM in test [2], 1040 nM in test [3] and 1050 nM in test [4].

With `C[C@H]1CC[C@@H](c2nc3cccc(-c4cnn(C5CC5)c4)c3c(=O)n2-c2cccnc2)N1c1nc(N)nc(N)c1C#N`, the inhibition came out at 34% in test [1], 21% in test [5], 31% in test [6] and 63% in test [7]. Also, the IC50 in test [2] is 2130 nM; in test [3], 480 nM; in test [4] it was 700 nM.

For the compound `C[C@H]1CC[C@@H](c2nc3cccc(C#Cc4ccccc4)c3c(=O)n2-c2ccccc2)N1c1nc(N)nc(N)c1C#N`, the inhibition in test [1] was 40%; in test [5] it was -3%; in test [6], 22%; in test [7] it was 11%. Moreover, the IC50 was 1840 nM in test [2], 400 nM in test [3] and 670 nM in test [4].

As to `C[C@H]1CC[C@@H](c2nc3ccc(Cl)cc3c(=O)n2-c2cccnc2)N1c1nc(N)nc(N)c1C#N`, the inhibition in test [1] was 89%; in test [5], 89%; in test [6], 56%; in test [7], 100%. Further, the IC50 in test [2] came out at 1050 nM; in test [3], 770 nM; in test [4] it was 900 nM.

For the compound `COc1ccc(-c2cccc3nc([C@@H]4CC[C@H](C)N4c4nc(N)nc(N)c4C#N)n(-c4ccccc4)c(=O)c23)cn1`, the inhibition in test [1] was 29%; in test [6], 14%; in test [7], 77%. In addition, the values for the IC50 in test [2], in test [3] and in test [4] were 630 nM, 390 nM and 600 nM, respectively.

On to `C[C@H]1CC[C@@H](c2nc3c(F)cccc3c(=O)n2-c2cccnc2)N1c1nc(N)nc(N)c1C#N`, for which the inhibition in test [1] was 52%; in test [5], 6%; in test [6], 30%; in test [7], 23%. For the same compound, the IC50 turned out to be 440 nM in test [2], 920 nM in test [3] and 620 nM in test [4].

For `Cc1cccc(C#Cc2cccc3nc([C@@H]4CC[C@H](C)N4c4nc(N)nc(N)c4C#N)n(-c4ccccc4)c(=O)c23)c1`, the inhibition amounted to 83% in test [1], 64% in test [5], 35% in test [6] and 69% in test [7]. In addition, the IC50 amounted to 4130 nM in test [2], 2620 nM in test [3] and 3310 nM in test [4].

Regarding `C[C@H]1CC[C@@H](c2nc3cccc(C#Cc4ccsc4)c3c(=O)n2-c2ccccc2)N1c1nc(N)nc(N)c1C#N`, the inhibition was 49% in test [1], 5% in test [5], -2% in test [6] and 15% in test [7]. For the same compound, the IC50 in test [2] stood at 650 nM; in test [3], 520 nM; in test [4], 540 nM.

With `Cc1ccccc1C#Cc1cccc2nc([C@@H]3CC[C@H](C)N3c3nc(N)nc(N)c3C#N)n(-c3ccccc3)c(=O)c12`, the inhibition in test [1] came to 65%; in test [5] it was 62%; in test [6], 23%; in test [7], 78%. Also, the IC50 in test [2] came out at 760 nM; in test [3], 2470 nM; in test [4], 3580 nM.

Regarding `C[C@H]1CC[C@@H](c2nc3cccc(-c4cnn(C(F)F)c4)c3c(=O)n2-c2ccccc2)N1c1nc(N)nc(N)c1C#N`, the inhibition in test [1] was found to be 20%; in test [6], 26%; in test [7] it was 46%. In addition, the IC50 in test [2] amounted to 670 nM; in test [3], 470 nM; in test [4], 330 nM.

With `C[C@H]1CC[C@@H](c2nc3cccc(-c4cnn(C5CC5)c4)c3c(=O)n2-c2cccc(F)c2)N1c1nc(N)nc(N)c1C#N`, the inhibition in test [1] is 29%; in test [5], 16%; in test [6], 25%; in test [7] it was 59%. Moreover, the IC50 in test [2] was 970 nM; in test [3], 250 nM; in test [4], 660 nM.

Take `COc1cncc(-c2cccc3nc([C@@H]4CC[C@H](C)N4c4nc(N)nc(N)c4C#N)n(-c4cccnc4)c(=O)c23)c1`: the inhibition is 23% in test [1], 8% in test [5], 10% in test [6] and 54% in test [7]. Further, the IC50 in test [2] came out at 810 nM; in test [3] it was 150 nM; in test [4], 590 nM.

In the case of `C[C@H](Nc1ncnc2nc[nH]c12)c1cc2cccc(Cl)c2c(=O)n1-c1ccccc1` [DUVELISIB], the values for the IC50 in test [2], in test [3] and in test [4] were 200 nM, 390 nM and 270 nM, respectively.

For `COc1ccc(-c2cccc3nc([C@@H]4CC[C@H](C)N4c4nc(N)nc(N)c4C#N)n(-c4ccccc4)c(=O)c23)cc1`, the inhibition in test [1] came to 41%; in test [6] it was 5%; in test [7], 44%. Moreover, the values for the IC50 in test [2], in test [3] and in test [4] were 1140 nM, 700 nM and 890 nM, respectively.
